From patent US11225675B2, “D-lactate dehydrogenase, engineered strain containing D-lactate dehydrogenase and construction method and use of engineered strain” (Shanghai Jiao Tong University, priority 2017, dated 2022)

What was measured:
[1] = molecular target: T1, D-lactate dehydrogenases LdhTi (Thermodesulfatator indicus, UniProt F8A9V0); experiment: Enzymatic characteristic identification (substrate spectrum) of D-lactate dehydrogenase LdhTi, NADH/NAD at 340 nm; format: biochemical; details: for whether LdhTi catalyzes the substrate (in words) / Km / kcat: 50 mM phosphate buffer pH 7.0, 0.2 mM NADH or NAD+, 37° C.; for Km / kcat: substrate of purified LdhTi, “—” = enzyme has no activity for the substrate
Procedure: A reaction system is consisting of: 50 mM phosphate buffer solution (pH 7.0), 0.2 mM NADH or NAD^+ as coenzyme, a suitable amount of D-lactate dehydrogenases LdhTi and substrates with different concentrations, reacted at 37° C. An enzyme activity determination method is to determine oxidization of NADH or reduction of NAD at ultraviolet wavelength of 340 nm, wherein one enzyme activity unit is defined as the enzyme amount needed for oxidizing or reducing 1 μmoL NADH or NAD in one minute.

[2] = substrate: O=C(O)C(=O)Cc1ccccc1; experiment: purified protein, by the assay type; details: other: substrate of purified LdhTi, 50 mM phosphate buffer pH 7.0, 0.2 mM NADH or NAD+, 37° C., “—” = enzyme has no activity for the substrate
[3] = substrate: C[C@@H](O)C(=O)O; experiment: Enzymatic characteristic identification (substrate spectrum) of D-lactate dehydrogenase LdhTi, NADH/NAD at 340 nm; format: biochemical, Thermodesulfatator indicus; details: other: substrate of purified LdhTi, 50 mM phosphate buffer pH 7.0, 0.2 mM NADH or NAD+, 37° C., “—” = enzyme has no activity for the substrate
[4] = substrate: CC(=O)C(=O)O; experiment: as above; format: biochemical, Thermodesulfatator indicus; details: other: substrate of purified LdhTi, 50 mM phosphate buffer pH 7.0, 0.2 mM NADH or NAD+, 37° C., “—” = enzyme has no activity for the substrate
[5] = molecular target: T1, D-lactate dehydrogenases LdhTi; experiment: Determination of the optimal reaction temperature of D-lactate dehydrogenases LdhTi; format: biochemical; details: 20 mM pyruvic acid, 0.2 mM NADH, 20 mM phosphate buffer pH 7.0, 30° C. to 100° C., FIG. 4
Procedure: An enzyme activity determination method is to determine change in NADH at ultraviolet wavelength of 340 nm, and one enzyme activity unit is defined as the enzyme amount needed for oxidizing 1 μmoL of NADH in one minute. Conditions for determination of the optimal reaction temperature of D-lactate dehydrogenases were as follows: 20 mM pyruvic acid as a substrate, 0.2 mM NADH as a coenzyme and 20 mM phosphate buffer solution (pH 7.0) system are adopted; and enzyme activities from 30° C. to 100° C. were respectively determined, and experiments were repeated thrice. […] Relative enzyme activities in FIG. 4 are relative enzyme activities, which are obtained by: determining enzyme activities at different temperature conditions, and correspondingly converting the enzyme activity values at other temperature conditions on the basis that the highest value at 70° C. is 100%.

[6] = molecular target: T1, D-lactate dehydrogenases LdhTi; experiment: Determination of the optimal reaction pH value of D-lactate dehydrogenases LdhTi; format: biochemical; details: 37° C., 20 mM pyruvic acid, 0.2 mM NADH, pH range 3.0-11.0, FIG. 3
Procedure: An enzyme activity determination method is to determine change in NADH at ultraviolet wavelength of 340 nm, and one enzyme activity unit is defined as the enzyme amount needed for oxidizing 1 μmoL of NADH in one minute. At 37° C., by using 20 mM pyruvic acid as a substrate and 0.2 mM NADH as a coenzyme, the change of enzyme activity of the D-lactate dehydrogenase within a pH range of 3.0-11.0 was determined. A buffer system is consisting of: 50 mM citric acid-sodium citrate buffer solution with pH of 3.0-7.0; 50 mM phosphate buffer solution with pH of 7.0-9.0; and 50 mM sodium carbonate-sodium hydrogen carbonate buffer solution with pH of 9.0-11.0. Experiments were repeated thrice. […] Relative enzyme activities in FIG. 3 are relative enzyme activities, which are obtained by: determining enzyme activities at different pH values, and correspondingly converting the enzyme activity values at other pH values on the basis that the highest value at pH 6.0 is 100%.

With `C[C@@H](O)C(=O)O` [D-lactic Acid, D-lactic acid] the “whether LdhTi catalyzes the substrate (in words)” value [1] was “can catalyze”.

`O=C(O)C(O)CO` (centres unmarked) [Glyceric Acid, glyceric acid] was tested, and the “whether LdhTi catalyzes the substrate (in words)” value [1] was “no activity”.

In the case of `O=CC(=O)O` [Glyoxylic Acid, glyoxylic acid], the “whether LdhTi catalyzes the substrate (in words)” value [1] is reported as “can catalyze”, the Km [1] is reported as 1760 ± 80 µM and the kcat [1] is reported as 2.297 ± 0.0517 s⁻¹.

In the case of `C[C@H](O)C(=O)O` [L-lactic Acid, L-lactic acid], the “whether LdhTi catalyzes the substrate (in words)” value [1] is reported as “no activity”.

For `O=C(O)CC(=O)C(=O)O` [Oxaloacetic Acid, oxaloacetic acid], the “whether LdhTi catalyzes the substrate (in words)” value [1] was “can catalyze”, the Km [1] was 1320 ± 50 µM and the kcat [1] was 4.473 ± 0.0983 s⁻¹.

In the case of `O=C(O)C(=O)Cc1ccccc1` [Phenylpyruvic Acid, phenylpyruvic acid], the “whether LdhTi catalyzes the substrate (in words)” value [1] is reported as “can catalyze”.

For `CC(=O)C(=O)O` [Pyruvic Acid, pyruvic acid], the “whether LdhTi catalyzes the substrate (in words)” value [1] was “can catalyze” and the “catalytic efficiency of LdhTi for the substrate (in words)” value ([1]; compared among the tested substrates) was “highest catalytic efficiency”.

B1: D-lactate dehydrogenases LdhTi (Thermodesulfatator indicus DSM 15286) (protein)
chain: MKVIFFSMHPYEEEFLGPILPSDWDVEMTPDFLDETTVEKAKGAQVVSLFVSDKADGPVLEALHSYGVGLLALRSAGYDHIDIETAKRLGIKVVNVPAYSPHAIADHTLAIMLALIRRLHRAHDKVRLGDFDLDGLMGFDLNGKVAGVIGLGKIGRLVATRLKAFGCKVLGYDPYIQPEIVENVDLDTLITQADIISIHCPLTRENFHMFNEETFKRMKPGAILVNTARGGLIDTKALLEALKSGKLGGAALDVYEYERGLFFKNHQKEGIKDPYLAQLLGLANVVLTGHQAFLTREAVKNIEETTVENILEWQKNPQAKLKNEI
With B1 the Km [2] was 4580 ± 240 µM, the kcat [2] was 0.295 s⁻¹ and the kcat/Km [2] was 64.3 M⁻¹ s⁻¹. For the same molecule, the Km [3] was 5410 ± 280 µM, the kcat [3] was 0.105 ± 0.005 s⁻¹ and the kcat/Km [3] was 19.3 ± 0.5 M⁻¹ s⁻¹. For the same molecule, the Km [4] was 50 ± 10 µM, the kcat [4] was 1.08 ± 0.0283 s⁻¹ and the kcat/Km [4] was 20700 ± 667 M⁻¹ s⁻¹.

B2: LdhTi: D-lactate dehydrogenase from Thermodesulfatator indicus DSM 15286, amino acid sequence SEQ ID No. 1, expressed in E. coli and purified (protein)
chain: B1 chain
modifications: Thermodesulfatator indicus DSM 15286
B2 was tested, and the optimal reaction temperature [5] was 70 °C and the “optimal reaction pH value” [6] was 6.0.
